Results taken from article PMC4298654, “In vivo formation of N-acyl-fumonisin B1” (Mycotoxin Research, 2014).

Assay: In vivo formation of NAFB1 and NAHFB1 in rat kidney and liver (HPLC-ESI-MS/MS)
Parameters: N-acyl-derivative in tissue sample, analysis a / N-acyl-derivative in tissue sample, analysis b / N-acyl-derivative in tissue sample, mean: unit not given here
Conditions: 5 days
Source text: The study protocol was approved by the Institutional Animal Care and Use Committee, Richard B. Russell Agricultural Research Center, Athens, GA. Male Sprague–Dawley rats (Harlan Industries, Indianapolis, IN, USA), 7 weeks of age at receipt, were individually housed in stainless steel, wire mesh cages in an environmentally controlled room having a 12-h light/dark cycle. Food (2019 Global Rodent Diet, Teklad, Madison, WI, USA) and fresh tap water were provided ad libitum. After a 1 week acclimation period, the animals were randomly assigned to five groups (n = 2/group) having mean weights of 215 to 216 g (weight range of all animals, 211 to 220 g). For five consecutive days, they were observed, weighed, and given an intraperitoneal injection (ip) of 0 (vehicle), 0.5, 1.0, or 2.0 mg/kg body weight FB1 (provided by R. Eppley, US FDA), 1.0 mg/kg body weight HFB1 (positive control) (Voss et al. [2009]), or vehicle (0.9 % physiological saline). These doses corresponded to 0.69, 1.38, and 2.77 μmol FB1/kg body weight and 2.47 μmol/kg body weight HFB1 per day. In order to compare the effects of FB1 and HFB1, dosages will be expressed as molar concentrations and, on this basis, the high dose of FB1 is roughly equivalent to that of the positive control dose of HFB1. Dosing solutions were sterile filtered and administered at a volume rate of 10 ml/kg body weight. The animals were fasted overnight prior to administration of the final dose. The rats were euthanized (CO2 inhalation and exsanguination) 60 to 90 min following the final dose administration and examined by necropsy. The kidney and liver specimens were fixed in 10 % neutral buffered formalin, processed, and microscopically evaluated without knowledge of the animal’s identity or treatment group. Three representative liver and kidney specimens (100 mg each) were also collected, immediately frozen, and stored (−80 °C) until processed, at which time the tissues were thawed and homogenized in distilled/deionized water (1 ml water/100 mg tissue). The homogenates were lyophilized before they were shipped by overnight courier for the analysis of fumonisin metabolites and sphingolipids.
Lyophilized liver and kidney tissues (100 mg wet weight equivalents) were processed for the quantification of FB1, HFB1, NAFB1, NAHFB1, and sphingolipids. Preparation of the tissue samples was performed according to a previously published method (Harrer et al. [2013]). For the quantification of FB1 and HFB1, a d6-labeled derivative of FB1 (FB1-d6) was used as the internal standard. Synthetic derivatives with a heptadecanoic fatty acid (C17:0) residue were used as internal standards for the quantification of N-acyl-fumonisins and ceramides (N-C17:0-FB1, N-C17:0-HFB1, and N-C17:0-ceramide). The sphingoid bases and their phosphate derivatives were quantified using synthetic derivatives with a C17-acyl-backbone: sphingosine (C17:1), sphingosine-1-phosphate (C17:1), sphinganine (C17:0), sphinganine-1-phosphate (C17:0) as internal standards. The standards were dissolved in methanol:chloroform (2:1, v/v) and then mixed with the tissue samples. The samples spiked with internal standard were kept at room temperature for 30 min before being processed further. The internal standard-spiked samples were first extracted with ethyl acetate, isopropanol, and water (60:30:10, v/v/v) and a second time using methanol, chloroform, and water (60:30:10, v/v/v). The extracts were combined, the solvents removed by evaporation, and the dried samples stored at−80 °C till analyzed.
For the analysis, the samples were reconstituted in a mixture of water, methanol, and tetrahydrofurane (60:24:16, v/v/v). The NAFB1 and NAHFB1 derivatives having the following fatty acyl chain lengths were quantified by HPLC-MS/MS: C16:0, C18:0, C20:0, C22:0, C24:0, C26:0. Furthermore, we also quantified the unsaturated derivatives C24:1 and C26:1. The results are given as the sum of all N-acyl derivatives of FB1 or HFB1. […]

[1] = Kidney, treatment FB1 0,5 mg/kg BW ip
[2] = Kidney, treatment FB1 1 mg/kg BW ip
[3] = Kidney, treatment FB1 2 mg/kg BW ip
[4] = Kidney, treatment HFB1 1 mg/kg BW ip
[5] = Liver, treatment FB1 0,5 mg/kg BW ip
[6] = Liver, treatment FB1 1 mg/kg BW ip
[7] = Liver, treatment FB1 2 mg/kg BW ip
[8] = Liver, treatment HFB1 1 mg/kg BW ip

Compound: CCCCCCCCCCCCCCCCCC(=O)NC(C)C(O)CC(O)CCCCC(O)CC(C)CC(OC(=O)CC(CC(=O)O)C(=O)O)C(OC(=O)CC(CC(=O)O)C(=O)O)C(C)CCCC (stereo not shown) [FB1C18:0]
- N-acyl-derivative in tissue sample, analysis a [1]: 2,5
- N-acyl-derivative in tissue sample, analysis b [1]: 2,9
- N-acyl-derivative in tissue sample, mean [1]: 2,7
- N-acyl-derivative in tissue sample, analysis a [2]: 3,8
- N-acyl-derivative in tissue sample, analysis b [2]: 3,1
- N-acyl-derivative in tissue sample, mean [2]: 3,4
- N-acyl-derivative in tissue sample, analysis a [3]: 4,0
- N-acyl-derivative in tissue sample, analysis b [3]: 2,8
- N-acyl-derivative in tissue sample, mean [3]: 3,4
- N-acyl-derivative in tissue sample, analysis a [4]: 0,0
- N-acyl-derivative in tissue sample, analysis b [4]: 0,0
- N-acyl-derivative in tissue sample, analysis a [5]: 3,1
- N-acyl-derivative in tissue sample, analysis b [5]: 2,4
- N-acyl-derivative in tissue sample, mean [5]: 2,8
- N-acyl-derivative in tissue sample, analysis a [6]: 2,0
- N-acyl-derivative in tissue sample, analysis b [6]: 3,0
- N-acyl-derivative in tissue sample, mean [6]: 2,5
- N-acyl-derivative in tissue sample, analysis a [7]: 3,0
- N-acyl-derivative in tissue sample, analysis b [7]: 3,9
- N-acyl-derivative in tissue sample, mean [7]: 3,5
- N-acyl-derivative in tissue sample, analysis a [8]: 0,0
- N-acyl-derivative in tissue sample, analysis b [8]: 0,0

Compound: CCCCCCCCCCCCCCCCCCCCCC(=O)N[C@@H](C)[C@@H](O)C[C@H](O)CCCC[C@@H](O)C[C@H](C)C[C@H](O)[C@H](O)[C@H](C)CCCC [HFB1C22:0]
- N-acyl-derivative in tissue sample, analysis a [1]: 0,0
- N-acyl-derivative in tissue sample, analysis b [1]: 0,0
- N-acyl-derivative in tissue sample, mean [1]: 0,0
- N-acyl-derivative in tissue sample, analysis a [2]: 0,0
- N-acyl-derivative in tissue sample, analysis b [2]: 0,0
- N-acyl-derivative in tissue sample, mean [2]: 0,0
- N-acyl-derivative in tissue sample, analysis a [3]: 0,0
- N-acyl-derivative in tissue sample, analysis b [3]: 0,0
- N-acyl-derivative in tissue sample, mean [3]: 0,0
- N-acyl-derivative in tissue sample, analysis a [4]: 1,5
- N-acyl-derivative in tissue sample, analysis b [4]: 4,3
- N-acyl-derivative in tissue sample, mean [4]: 2,9
- N-acyl-derivative in tissue sample, analysis a [5]: 0,0
- N-acyl-derivative in tissue sample, analysis b [5]: 0,0
- N-acyl-derivative in tissue sample, mean [5]: 0,0
- N-acyl-derivative in tissue sample, analysis a [6]: 0,0
- N-acyl-derivative in tissue sample, analysis b [6]: 0,0
- N-acyl-derivative in tissue sample, mean [6]: 0,0
- N-acyl-derivative in tissue sample, analysis a [7]: 0,0
- N-acyl-derivative in tissue sample, analysis b [7]: 0,0
- N-acyl-derivative in tissue sample, mean [7]: 0,0
- N-acyl-derivative in tissue sample, analysis a [8]: 61,0
- N-acyl-derivative in tissue sample, analysis b [8]: 45,8
- N-acyl-derivative in tissue sample, mean [8]: 53,4

Compound: CCCCCCCCC=CCCCCCCCCCCCCCC(=O)NC(C)C(O)CC(O)CCCCC(O)CC(C)CC(OC(=O)CC(CC(=O)O)C(=O)O)C(OC(=O)CC(CC(=O)O)C(=O)O)C(C)CCCC (stereo not shown) [FB1C24:1]
- N-acyl-derivative in tissue sample, analysis a [1]: 3,6
- N-acyl-derivative in tissue sample, analysis b [1]: 3,5
- N-acyl-derivative in tissue sample, mean [1]: 3,6
- N-acyl-derivative in tissue sample, analysis a [2]: 4,1
- N-acyl-derivative in tissue sample, analysis b [2]: 4,6
- N-acyl-derivative in tissue sample, mean [2]: 4,3
- N-acyl-derivative in tissue sample, analysis a [3]: 5,7
- N-acyl-derivative in tissue sample, analysis b [3]: 4,2
- N-acyl-derivative in tissue sample, mean [3]: 4,9
- N-acyl-derivative in tissue sample, analysis a [4]: 0,0
- N-acyl-derivative in tissue sample, analysis b [4]: 0,0
- N-acyl-derivative in tissue sample, mean [4]: 0,0
- N-acyl-derivative in tissue sample, analysis a [5]: 9,2
- N-acyl-derivative in tissue sample, analysis b [5]: 11,8
- N-acyl-derivative in tissue sample, mean [5]: 10,5
- N-acyl-derivative in tissue sample, analysis a [6]: 3,4
- N-acyl-derivative in tissue sample, analysis b [6]: 6,3
- N-acyl-derivative in tissue sample, mean [6]: 4,9
- N-acyl-derivative in tissue sample, analysis a [7]: 9,0
- N-acyl-derivative in tissue sample, analysis b [7]: 11,1
- N-acyl-derivative in tissue sample, mean [7]: 10,1
- N-acyl-derivative in tissue sample, analysis a [8]: 0,0
- N-acyl-derivative in tissue sample, analysis b [8]: 0,0
- N-acyl-derivative in tissue sample, mean [8]: 0,0

Compound: CCCCCCCCCCCCCCCC(=O)NC(C)C(O)CC(O)CCCCC(O)CC(C)CC(OC(=O)CC(CC(=O)O)C(=O)O)C(OC(=O)CC(CC(=O)O)C(=O)O)C(C)CCCC (stereo not shown) [FB1C16:0]
- N-acyl-derivative in tissue sample, analysis a [1]: 7,4
- N-acyl-derivative in tissue sample, analysis b [1]: 9,1
- N-acyl-derivative in tissue sample, mean [1]: 8,2
- N-acyl-derivative in tissue sample, analysis a [2]: 14,4
- N-acyl-derivative in tissue sample, analysis b [2]: 12,6
- N-acyl-derivative in tissue sample, mean [2]: 13,5
- N-acyl-derivative in tissue sample, analysis a [3]: 12,1
- N-acyl-derivative in tissue sample, analysis b [3]: 13,8
- N-acyl-derivative in tissue sample, mean [3]: 13,0
- N-acyl-derivative in tissue sample, analysis a [4]: 0,0
- N-acyl-derivative in tissue sample, analysis b [4]: 0,0
- N-acyl-derivative in tissue sample, mean [4]: 0,0
- N-acyl-derivative in tissue sample, analysis a [5]: 6,8
- N-acyl-derivative in tissue sample, analysis b [5]: 5,1
- N-acyl-derivative in tissue sample, mean [5]: 6,0
- N-acyl-derivative in tissue sample, analysis a [6]: 3,9
- N-acyl-derivative in tissue sample, analysis b [6]: 6,4
- N-acyl-derivative in tissue sample, mean [6]: 5,2
- N-acyl-derivative in tissue sample, analysis a [7]: 8,4
- N-acyl-derivative in tissue sample, analysis b [7]: 5,9
- N-acyl-derivative in tissue sample, mean [7]: 7,1
- N-acyl-derivative in tissue sample, analysis a [8]: 0,0
- N-acyl-derivative in tissue sample, analysis b [8]: 0,0
- N-acyl-derivative in tissue sample, mean [8]: 0,0
